According to paper PMC4917206, “Chemical Modification of Influenza CD8+ T-Cell Epitopes Enhances Their Immunogenicity Regardless of Immunodominance” (PLoS ONE, 2016):

Experiments:
[1] = system: splenocytes of WT-vaccinated HLA-A2 tg mice; assay type: cell-based, mouse; set-up: key to response compared with WT peptide control, mouse splenocytes: *: Lower response than WT peptide
HLA-A*0201 = target: T1, HLA-A*0201 (Homo sapiens, UniProt P04439, D140Y/D185E/D98H/E176V/E277Q/G131W/G231S/I119V/I121R/I166T/I218V/L300P/L318F/N151K/N90K/P208A/P217A/Q86G/Q94H/R138H/R169H/T345S); assay type: binding
T1 construct: Soluble MHC was dissolved in PBS containing 0.5 mg/ml bovine γ-globulin; made in house

HLA-A*0301 = target: T2, HLA-A*0301 (Homo sapiens, UniProt P04439); assay type: binding; conditions: for FP binding score HLA-A*0301, percentage inhibition, 4h: after 4h; for FP binding score HLA-A*0301, percentage inhibition, 24h: after 24h
T2 construct: Soluble MHC was dissolved in PBS containing 0.5 mg/ml bovine γ-globulin; made in house

Substance | FP binding score, percentage inhibition of tracer peptide binding, 4h (HLA-A*0301) | FP binding score, percentage inhibition of tracer peptide binding, 24h (HLA-A*0301) | also measured
F[2-AOC]YSDFHFI [F143] |  |  | Mouse splenocytes (ex vivo assay), Average [1]: 92; rank by T cell activation, mouse splenocytes [1]: Upper 3; response compared with WT peptide control, mouse splenocytes [1]: F143 ^*; FP binding score, percentage inhibition of tracer peptide binding, 4h (HLA-A*0201): 93%; FP binding score, percentage inhibition of tracer peptide binding, 24h (HLA-A*0201): 91%
ILRGSVAHK [I WT, reference compound] | 66% | 87% | 
ILRGSV[2-AOC]HK [I65] | 87% | 94% | 
ILRGSV[NLE]HK [I63] | 74% | 89% | 
IL[4-FPHE]GSVAHK [I94] | 70% | 89% | 
I[AHA]RGSV[2-FUR]HK [I79] | 77% | 90% | 
I[AHA]RGSV[CSET]HK [I73] | 74% | 90% | 
I[AHA]RGSV[CpALA]HK [I77] | 71% | 89% | 
I[AHA]RGSV[NLE]HK [I74] | 77% | 92% | 
I[AHA][2-AOC]GSVAHK [I59] | 71% | 91% | 
I[AHA][4-FPHE]GSVAHK [I87] | 73% | 91% | 
I[AHA][CHA]GSVAHK [I89] | 75% | 91% | 
I[AHA][CSME]GSVAHK [I86] | 71% | 89% | 
I[AHA][CpALA]GSVAHK [I83] | 70% | 89% | 
I[AHA][NLE]GSVAHK [I58] | 68% | 89% | 
I[AHA][PRG]GSVAHK [I84] | 71% | 89% | 
I[AHA][SOME]GSVAHK [I85] | 69% | 88% | 
I[OrnN2]RGSVAHK [I49] | 71% | 90% | 
RMVLSAFDEK [R4] | 61% | 69% | 
RMVLSAFDER [R WT, reference compound] | 18% | 6% | 
RMVLSAF[2-AOC]ER [R38] | 69% | 75% | 
RMVLSAF[4-FPHE]ER [R40] | 63% | 57% | 

Substance | FP binding score, percentage inhibition of tracer peptide binding, 4h (HLA-A*0301) | FP binding score, percentage inhibition of tracer peptide binding, 24h (HLA-A*0301) | also measured
RMVLSAF[AHA]ER [R81] | 71% | 76% | 
RMVLSAF[CSET]ER [R37] | 60% | 60% | FP binding score HLA-A*0301, percentage inhibition, 4h (HLA-A*0301): 60%; FP binding score HLA-A*0301, percentage inhibition, 24h (HLA-A*0301): 60%
RMVLSAF[CpALA]ER [R42] | 65% | 73% | 
RMVLSAF[NLE]ER [R36] | 66% | 73% | 
RMVLSAF[ORN]ER [R41] | 65% | 63% | 
RMVLSAF[PRG]ER [R39] | 62% | 62% | FP binding score HLA-A*0301, percentage inhibition, 4h (HLA-A*0301): 62%; FP binding score HLA-A*0301, percentage inhibition, 24h (HLA-A*0301): 62%
RM[2-AOC]LSAFDER [R50] | 70% | 66% | 
RM[4-FPHE]LSAFDER [R55] | 70% | 65% | 
RM[OrnN2]LSAFDER [R83] | 71% | 72% | 
R[AHA]VLSAFDEK [R2] | 58% | 67% | 
R[AHA]VLSAF[2-AOC]ER [R67] | 74% | 78% | 
R[AHA]VLSAF[4-FPHE]ER [R68] | 67% | 64% | 
R[AHA]VLSAF[SOME]ER [R66] | 63% | 63% | FP binding score HLA-A*0301, percentage inhibition, 4h (HLA-A*0301): 63%; FP binding score HLA-A*0301, percentage inhibition, 24h (HLA-A*0301): 63%
R[NVA]VLSAFDKR [R59] | 62% | 68% | 
R[NVA]VLSAF[2-AOC]ER [R71] | 71% | 82% | 
R[NVA]VLSAF[4-FPHE]ER [R72] | 68% | 72% | 
R[NVA]VLSAF[SOME]ER [R70] | 64% | 74% | 
SFSFGGFTK [S WT, reference compound] | 67% | 58% | 
SF[4-FPHE]FGGFTK [S84] | 82% | 95% | 
S[AHA]RFGGFTK [S54] | 80% | 92% | 
S[NVA]RFGGFTK [S53] | 80% | 93% | 
S[NVA]SFGGFHK [S56] | 78% | 91% | 

Substance | FP binding score, percentage inhibition of tracer peptide binding, 4h (HLA-A*0301) | FP binding score, percentage inhibition of tracer peptide binding, 24h (HLA-A*0301) | also measured
S[NVA]SFGGF[AHA]K [S90] | 78% | 90% | 
S[NVA]SFGGF[TOME]K [S92] | 80% | 92% | 
S[NVA]SFGG[2-AOC]TK [S70] | 90% | 96% | 
S[NVA]SFGG[2-FUR]TK [S76] | 75% | 91% | 
S[NVA]SFGG[4-FPHE]TK [S72] | 79% | 93% | 
S[NVA]SFGG[BPG]TK [S73] | 73% | 91% | 
S[NVA]SFGG[CpALA]TK [S74] | 78% | 94% | 
S[NVA]SFGG[NLE]TK [S68] | 79% | 93% | 
S[NVA]SFGG[NVA]TK [S69] | 72% | 91% | 
S[NVA]SFGG[PRG]TK [S71] | 70% | 90% | 
S[NVA][2-AOC]FGGFTK [S50] | 83% | 94% | 
S[NVA][4-FPHE]FGGFTK [S95] | 80% | 93% | 
S[NVA][AHA]FGGFTK [S52] | 80% | 93% | 
S[NVA][CSME]FGGFTK [S93] | 80% | 93% | 
S[NVA][CpALA]FGGFTK [S96] | 76% | 91% | 
S[NVA][NLE]FGGFTK [S94] | 80% | 93% | 
[2-AOC][AHA]RGSVAHK [I17] | 61% | 89% | 
[2-AOC][NLE]RGSVAHK [I60] | 72% | 91% | 
[AHA][NLE]RGSVAHK [I53] | 73% | 91% | 
[CSME][AHA]RGSVAHK [I61] | 71% | 90% | 
